Earlier results in patent publication US11857556B2, “Topical compositions of dutasteride” (SHILPA MEDICARE LIMITED, priority 2021, dated 2024).

- Solubility in ethanol, methanol and polyethylene glycol 400 (ethanol, methanol and polyethylene glycol 400): soluble
- Solubility in water (water): insoluble
SMILES: C[C@]12C=CC(=O)N[C@@H]1CC[C@@H]1[C@@H]2CC[C@]2(C)[C@@H](C(=O)Nc3cc(C(F)(F)F)ccc3C(F)(F)F)CC[C@@H]12 [Dutasteride, (5α,17β)-N-{2,5-bis(trifluoromethyl)phenyl}-3-oxo-4-azaandrost-1-ene-17-carboxamide]
